Biological target: T1, PDE2A (Rattus norvegicus, UniProt Q01062)
T1 construct: Twenty μm-thick striatal sections were cut; from tissue; host or cells: rat brain, striatal sections
T1 sequence (Q01062 1-928): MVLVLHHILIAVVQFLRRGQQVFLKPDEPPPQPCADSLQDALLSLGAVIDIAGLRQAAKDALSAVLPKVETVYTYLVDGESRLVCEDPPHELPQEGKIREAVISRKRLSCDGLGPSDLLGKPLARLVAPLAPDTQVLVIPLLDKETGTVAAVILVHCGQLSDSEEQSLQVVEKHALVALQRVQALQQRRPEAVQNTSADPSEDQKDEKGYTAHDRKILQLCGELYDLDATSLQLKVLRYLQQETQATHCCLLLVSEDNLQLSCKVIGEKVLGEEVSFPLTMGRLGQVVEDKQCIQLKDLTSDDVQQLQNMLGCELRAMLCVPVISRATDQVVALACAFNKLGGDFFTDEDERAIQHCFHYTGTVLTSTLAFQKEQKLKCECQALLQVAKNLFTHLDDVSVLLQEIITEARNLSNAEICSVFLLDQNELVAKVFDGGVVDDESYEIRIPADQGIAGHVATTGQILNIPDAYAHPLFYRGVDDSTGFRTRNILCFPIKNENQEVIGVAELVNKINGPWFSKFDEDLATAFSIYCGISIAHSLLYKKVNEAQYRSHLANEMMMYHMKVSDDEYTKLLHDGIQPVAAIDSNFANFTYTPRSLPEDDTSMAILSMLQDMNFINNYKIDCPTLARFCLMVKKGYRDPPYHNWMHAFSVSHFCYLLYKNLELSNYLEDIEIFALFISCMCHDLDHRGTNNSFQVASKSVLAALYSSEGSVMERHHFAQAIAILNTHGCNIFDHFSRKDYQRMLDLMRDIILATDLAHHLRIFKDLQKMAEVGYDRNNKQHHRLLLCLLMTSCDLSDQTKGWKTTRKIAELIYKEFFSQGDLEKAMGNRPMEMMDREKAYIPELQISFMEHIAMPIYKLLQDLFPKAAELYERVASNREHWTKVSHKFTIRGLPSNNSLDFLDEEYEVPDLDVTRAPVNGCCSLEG
Assay: PDE2 occupancy by test compounds, ex-vivo autoradiography with [3H]B-17a
Type: in vivo, Male Wistar rats
Settings: sc, 10 mg/kg, route SC (subcutaneous), percentage receptor occupancy, ex-vivo autoradiography, striatum

## C[C@@H]1CCN(C(=O)c2ccc3c(ccn3CCF)c2)C[C@H]1c1cc(C(F)F)nc2ncnn12 [Compound 89]
  receptor occupancy at 10 mg/kg: 88%
